Our source for the TGI and GI50 values is PubChem BioAssay (NCI).

Among the test systems are MOLT-4 leukemia; A498 renal; K-562 leukemia; NCI/ADR-RES ovarian; 786-0 renal; HOP-92 NSCLC; UACC-257 melanoma; SK-MEL-5 melanoma; NCI-H522 lung.
Assay in all cases: inhibition of tumour cell growth, NCI panel, 48 h

Molecules are shown by their SMILES.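 Cultured in 96-well plates, cells were exposed to test compound for 48 hours across five concentrations. GI50 is the concentration that inhibits growth by half. The concentration for full growth arrest is given as TGI.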

On to `CO[C@H]1C[C@H](O[C@H]2CC[C@]3(C=O)[C@H]4CC[C@]5(C)[C@@H](C6=CC(=O)OC6)CC[C@]5(O)[C@@H]4CC[C@]3(O)C2)O[C@H](C)[C@H]1O`, for which the TGI in the assay on MOLT-4 leukemia came out at 2.89 µM; in the assay on A498 renal, 1.34 µM; in the assay on K-562 leukemia, 1.35 µM; in the assay on NCI/ADR-RES ovarian, 2.3 µM; with 786-0 renal, 1.57 µM; in the assay on HOP-92 NSCLC, 1.73 µM. In addition, the TGI amounted to 1.43 µM in the assay with UACC-257 melanoma, 0.385 µM in the assay on SK-MEL-5 melanoma and 0.499 µM in the assay with NCI-H522 lung.

For `Nc1ncnc2c1ncn2Cc1cccc(CCl)c1`, the TGI was over 100 µM with MOLT-4 leukemia; 30 µM with A498 renal; over 100 µM with K-562 leukemia; 50.8 µM in the assay with NCI/ADR-RES ovarian; 34.6 µM with 786-0 renal; 65.5 µM with HOP-92 NSCLC. For the same molecule, the TGI is 30.4 µM in the assay with UACC-257 melanoma, 30.4 µM in the assay with SK-MEL-5 melanoma and 32.5 µM with NCI-H522 lung.

Turning to `O=C1c2ccccc2-c2[nH]c3cn[nH]c(=O)c3c21`, the TGI in the assay with MOLT-4 leukemia, in the assay on A498 renal, in the assay with K-562 leukemia, in the assay with NCI/ADR-RES ovarian, in the assay with 786-0 renal and in the assay on HOP-92 NSCLC was over 100 µM each time. Also, the results for the TGI in the assay with UACC-257 melanoma, in the assay with SK-MEL-5 melanoma and in the assay on NCI-H522 lung were over 100 µM, over 100 µM and 50.9 µM, respectively.

For `Nc1nc(Cl)cc(NCC2(O)CCCC2)n1`, the TGI in the assay on MOLT-4 leukemia, with A498 renal, with K-562 leukemia, in the assay with NCI/ADR-RES ovarian, in the assay on 786-0 renal and in the assay with HOP-92 NSCLC was over 100 µM each time. Besides, the TGI in the assay with UACC-257 melanoma, in the assay with SK-MEL-5 melanoma and in the assay on NCI-H522 lung was over 100 µM throughout.

For the molecule `NC(=O)CO/N=C1/C(c2c(O)[nH]c3ccccc23)=Nc2ccccc21`, the TGI in the assay with MOLT-4 leukemia, in the assay on A498 renal, in the assay on K-562 leukemia, with NCI/ADR-RES ovarian, in the assay with 786-0 renal and with HOP-92 NSCLC was over 100 µM each time. Further, the TGI in the assay on UACC-257 melanoma, with SK-MEL-5 melanoma and with NCI-H522 lung was over 100 µM each time.

Take `CN1C(=O)C(O)CC1c1cccc(C(F)(F)F)c1` (stereo unspecified): the TGI with MOLT-4 leukemia, in the assay with A498 renal, with K-562 leukemia, in the assay on NCI/ADR-RES ovarian, in the assay with 786-0 renal and with HOP-92 NSCLC was over 100 µM each time. For the same molecule, the TGI in the assay on UACC-257 melanoma, in the assay with SK-MEL-5 melanoma and in the assay with NCI-H522 lung was over 100 µM throughout.

For the molecule `O=C(c1ccco1)N(C(=S)OC12CC3CC(CC(C3)C1)C2)c1ccccc1`, the TGI is over 100 µM in the assay on MOLT-4 leukemia; 84.6 µM in the assay on A498 renal; over 100 µM with K-562 leukemia; over 100 µM in the assay with NCI/ADR-RES ovarian; 93.4 µM with 786-0 renal; over 100 µM in the assay with HOP-92 NSCLC. In addition, the TGI with UACC-257 melanoma was over 100 µM; with SK-MEL-5 melanoma, 35.5 µM; in the assay with NCI-H522 lung it was 51.8 µM.

On to `COc1ccc2nc3n(c2c1)CCc1cc(OC)c(OC)cc1-3`, for which the TGI in the assay with A498 renal, in the assay with K-562 leukemia, in the assay with NCI/ADR-RES ovarian, in the assay with 786-0 renal, with HOP-92 NSCLC and with UACC-257 melanoma was over 100 µM each time. Further, the TGI in the assay with SK-MEL-5 melanoma is 47.2 µM; in the assay with NCI-H522 lung, over 100 µM.

Take `CC(C)OC1OC(CO)C(O)CC1n1cc(F)c(=O)[nH]c1=O` (stereo unspecified): the TGI in the assay with A498 renal was over 100 µM; with K-562 leukemia, 86.4 µM; in the assay with NCI/ADR-RES ovarian, over 100 µM; in the assay with 786-0 renal it was over 100 µM; in the assay on HOP-92 NSCLC, over 100 µM; in the assay on UACC-257 melanoma, over 100 µM. In addition, the values for the TGI in the assay on SK-MEL-5 melanoma and with NCI-H522 lung were over 100 µM and 37.8 µM, respectively.

On to `CN(C)C(=S)Oc1ccc2ccc(=O)oc2c1`, for which the TGI in the assay on MOLT-4 leukemia, in the assay with A498 renal, with NCI/ADR-RES ovarian, with 786-0 renal, in the assay with HOP-92 NSCLC and with UACC-257 melanoma was over 100 µM throughout. Moreover, the TGI in the assay on SK-MEL-5 melanoma and with NCI-H522 lung was over 100 µM throughout.

For `CCC(CC(C)C)Nc1ccc(NC(CC)CC(C)C)cc1` (stereo unspecified), the GI50 in the assay with MOLT-4 leukemia is 17.8 µM; with A498 renal it was 23.8 µM; with K-562 leukemia, 10.7 µM; in the assay on NCI/ADR-RES ovarian it was 17.6 µM; with HOP-92 NSCLC, 10.7 µM; in the assay on UACC-257 melanoma it was 13.3 µM. For the same molecule, the GI50 in the assay on SK-MEL-5 melanoma is 15 µM; in the assay with NCI-H522 lung, 3.82 µM. For the same molecule, the TGI with MOLT-4 leukemia was found to be 44.5 µM; with A498 renal, 95.8 µM; in the assay on K-562 leukemia it was 37.8 µM; in the assay with NCI/ADR-RES ovarian it was 39.8 µM; in the assay on HOP-92 NSCLC it was 24.7 µM; in the assay with UACC-257 melanoma it was 28.4 µM. Besides, the TGI in the assay on SK-MEL-5 melanoma turned out to be 28.2 µM; in the assay on NCI-H522 lung it was 15.1 µM.

In the case of `CS(=O)(=O)NC12CCC(c3ccccc31)c1ccccc12`, the TGI with MOLT-4 leukemia, in the assay with A498 renal, in the assay on K-562 leukemia, with NCI/ADR-RES ovarian, in the assay on 786-0 renal and with HOP-92 NSCLC was over 100 µM each time. The TGI in the assay with SK-MEL-5 melanoma and in the assay on NCI-H522 lung was over 100 µM throughout.
